Results taken from USRE38257E1, “Piperdine derivatives and hypotensives containing the same” (Ajinomoto Co., Inc., priority 1988, dated 2003).

Test system: male spontaneously hypertensive rats
Assay: Decrease in systolic blood pressure in spontaneously hypertensive rats after intravenous bolus injection, indirect (tail-cuff) method
Assay type: in vivo, rat
Settings: for Decrease in systolic blood pressure (mmHg) time after administration (hour) 0.5: 0.5 hour after administration; for Decrease in systolic blood pressure (mmHg) time after administration (hour) 4: 4 hours after administration
Protocol: As test animals, four male spontaneously hypertensive rats (weight 400 to 440 g) that were sufficiently adapted for feeding and in which hypertension was confirmed were used.
Physiological saline aqueous solution containing 2.5% Nicolle and 2.5% ethanol of sample was intravenously administered by bolus injection at a dose of 1 ml per 1 kg of body weight. Systolic blood pressure after administration was measured by the indirect (tail-cuff) method.

SMILES	Decrease in systolic blood pressure (mmHg) time after administration (hour) 0.5 (dose 10 mg/kg i.v. bolus)	Decrease in systolic blood pressure (mmHg) time after administration (hour) 4 (dose 10 mg/kg i.v. bolus)	Decrease in systolic blood pressure (mmHg) time after administration (hour) 0.5 (dose 3 mg/kg i.v. bolus)	Decrease in systolic blood pressure (mmHg) time after administration (hour) 4 (dose 3 mg/kg i.v. bolus)
Cl.OCC1(CCCCN2CCC(=C3c4ccccc4C=Cc4ccccc43)CC2)CCCCC1 [Example 272, 1-(4-(4-(5H-Dibenzo[a,d]cyclohepten-5-ylidene)-1-piperidinyl)-1-butyl)-1-hydroxymethylcyclohexane hydrochloride]	−76 mmHg	−3 mmHg	–	–
CC(=O)OCC1(CCCCN2CCC(=C3c4ccccc4C=Cc4ccccc43)CC2)CCCCC1.Cl [Example 273, 1-Acetoxymethyl-1-(4-(4-(5H-dibenzo[a,d]cyclohepten-5-ylidene)-1-piperidinyl)-1-butyl)cyclohexane hydrochloride]	−37 mmHg	5 mmHg	–	–
COc1ccc(C(=O)C(C)CCN2CCC(=C3c4ccccc4C=Cc4ccccc43)CC2)cc1OC.Cl (centres unmarked) [Example 274, 4-(4-(5H-Dibenzo[a,d]cyclohepten-5-ylidene)-1-piperidinyl)-2-methyl-3′,4′-dimethoxybutyrophenone hydrochloride]	−102 mmHg	−21 mmHg	–	–
COc1ccc(C(=O)C(CCN2CCC(=C3c4ccccc4C=Cc4ccccc43)CC2)C(C)C)cc1OC.Cl (centres unmarked) [Example 275, 4-(4-(5H-Dibenzo[a,d]cyclohepten-5-ylidene)-1-piperidinyl)-2-(2-propyl)-3′,4′-dimethoxybutyrophenone hydrochloride]	−66 mmHg	−20 mmHg	–	–
C=CCC(CCN1CCC(=C2c3ccccc3C=Cc3ccccc32)CC1)C(=O)c1ccc(OC)c(OC)c1.Cl (centres unmarked) [Example 276, 2-Allyl-4-(4-(5H-dibenzo[a,d]cyclohepten-5-ylidene)-1-piperidinyl)-3′,4′dimethoxybutyrophenone hydrochloride]	−24 mmHg	−1 mmHg	–	–
CCCC(CCN1CCC(=C2c3ccccc3C=Cc3ccccc32)CC1)C(=O)c1ccc(OC)c(OC)c1.Cl (centres unmarked) [Example 277, 4-(4-(5H-dibenzo[a,d]cyclohepten-5-ylidene)-1-piperidinyl)-2-(1-propyl)-3′,4′-dimethoxybutyrophenone hydrochloride]	−27 mmHg	0 mmHg	–	–
CCC(CCN1CCC(=C2c3ccccc3C=Cc3ccccc32)CC1)C(=O)c1ccc(OC)c(OC)c1.Cl (centres unmarked) [Example 278, 4-(4-(5H-dibenzo[a,d]cyclohepten-5-ylidene)-1-piperidinyl)-2-ethyl-3′,4′-dimethoxybutyrophenone hydrochloride]	−64 mmHg	2 mmHg	–	–
C1=Cc2ccccc2C(=C2CCN(CCOCC3CCCCC3)CC2)c2ccccc21.Cl [Example 279]	–	–	−83 mmHg	−24 mmHg
CC(=O)N1CCCC(CCCN2CCC(=C3c4ccccc4C=Cc4ccccc43)CC2)C1.Cl (centres unmarked) [Example 280, 1-(n-Acetyl-3-piperidinyl)-3-(4-(5H-Dibenzo[a,d]cyclohepten-5-ylidene)-1-piperidinyl)propane hydrochloride]	−50 mmHg	−11 mmHg	–	–
C1=Cc2ccccc2C(=C2CCN(CCCC3CCCNC3)CC2)c2ccccc21.Cl.Cl (centres unmarked) [Example 281, 3-(4-(5H-Dibenzo[a,d]cyclohepten-5-ylidene)-1-piperidinyl)-1-(3-piperidinyl)propane dihydrochloride]	−31 mmHg	−5 mmHg	–	–
